Data: patent publication US12128035B2, “Activating pyruvate kinase R” (Novo Nordisk Health Care AG, priority 2021, dated 2024)

System: 2,3-DPG blood levels
Assay: Phase 1 SAD/MAD: blood 2,3-DPG (LC-MS/MS) in healthy volunteers
Type: in vivo, human
Details: for median and mean reduction in 2,3-DPG, relative to baseline: all MAD dose levels
Protocol: In this study, SAD/MAD cohorts are randomized (3 to 1) to receive Compound 1 or placebo (P). Compound 1 was evaluated first in 4 healthy SAD cohorts and 4 healthy MAD (14-day dosing period) cohorts. Based on the safety, and PK/PD profile from HS, Compound 1 is then evaluated in 1 SCD SAD cohort and 2 SCD MAD cohorts. Specifically, based on the safety and pharmacokinetic/pharmacodynamics (PK/PD) profile in healthy volunteer studies, Compound 1 is evaluated in patients (pts) with SCD, first in a single dose (SD or SAD) cohort and then in multiple-dose (MD or MAD) cohorts (14-day and 12-week). Safety assessments include AEs, vital signs, ECGs and laboratory parameters. PK/PD blood sampling was performed on Day 1 (SAD/MAD) and Day 14 (MAD) and up to 72 h after the last dose and at the end-of-study visit. PD parameters included 2,3-DPG, ATP, and p50 in all cohorts with additional PD studies (including oxygen scan) performed only in the SCD cohorts. PD parameters included 2,3-DPG, ATP, p50, RBC deformability with controlled deoxygenation and reoxygenation (Lorrca® oxygen scan) and varying osmolality (Lorrca® osmoscan)). To maintain study blind, pt identifiers were removed when needed.
In the SAD cohorts, the subjects' blood 2,3-DPG levels were measured periodically after dosing by a qualified LC-MS/MS method for the quantitation of 2,3-DPG in blood. Decreased 2,3-DPG blood levels were observed 6 hours following a single dose of Compound 1 at all dose levels (earlier timepoints were not collected). Maximum decreases in 2,3-DPG levels generally occurred ˜24 hours after the first dose with the reduction sustained ˜48-72 hr postdose. Table 15 reports the median percentage change in 2,3-DPG blood levels, relative to baseline, measured over time in healthy volunteers after a single dose of Compound 1 (200 mg, 400 mg, 700 mg, or 1000 mg) or placebo. Table 16 reports the mean percentage change in 2,3-DPG blood levels, relative to baseline, measured over time in healthy volunteers after a single dose of Compound 1 (200 mg, 400 mg, 700 mg, or 1000 mg). Accordingly, the median and mean reduction in the concentration of 2,3-DPG, relative to baseline, was at least about 30% at all dose levels tested 24 hours after administration of the single dose.
In the MAD cohorts, the subjects' blood 2,3-DPG levels were measured periodically after dosing by a qualified LC-MS/MS method for the quantitation of 2,3-DPG in blood. […] Table 18B reports the mean percentage change in 2,3-DPG blood levels, relative to baseline, measured over time after the first dose on days 1 and 14 in healthy volunteers who received daily doses of Compound 1 (100 mg BID, 200 mg BID, 300 mg BID, or 400 mg QD) for 14 days. Accordingly, the median and mean reduction in the concentration of 2,3-DPG, relative to baseline, was at least about 25% at all dose levels tested 24 hours after administration of the first dose on day 1 and at least about 40% at all dose levels tested 24 hours after administration of the first dose on day 14.
The following procedures are employed for the analysis of ATP and 2,3-DPG in human whole blood K2EDTA using a protein precipitation extraction procedure and analysis by LC-MS/MS.
The following procedures are used for sample extraction prior to analysis via LC-MS/MS. 15.0 μL of the calibration standards, quality controls, matrix blanks, and samples are aliquoted into a 96-well plate. 50.0 μL of the internal standard spiking solution is added to all samples on the plate, with the exception of the matrix blank samples; 50.0 μL of water is added to the matrix blank samples. Subsequently, 150 μL of water is added to all samples on the plate. The plate is then covered and agitated by vortex at high speed for ten minutes, after which 750 μL of methanol is added to all samples on the plate. The plate is covered and agitated by vortex for approximately 1 minute. The plate is then centrifuged at approximately 3500 RPM at approximately 4° C. for five minutes. […]

[1] = HV 400 mg QD, Day 14, 8 h after first daily dose
[2] = HV 400 mg QD, Day 14, 12 h after first daily dose
[3] = HV 400 mg QD, Day 14, 16 h after first daily dose
[4] = HV 400 mg QD, Day 14, 24 h after first daily dose
[5] = HV 400 mg QD, Day 14, 48 h after first daily dose
[6] = HV 400 mg QD, Day 14, 72 h after first daily dose
[7] = HV single 200 mg, 0 h after dose
[8] = HV single 200 mg, 6 h after dose
[9] = HV single 200 mg, 8 h after dose
[10] = HV single 200 mg, 12 h after dose
[11] = HV single 200 mg, 16 h after dose
[12] = HV single 200 mg, 24 h after dose
[13] = HV single 200 mg, 36 h after dose
[14] = HV single 200 mg, 48 h after dose
[15] = HV single 200 mg, 72 h after dose
[16] = HV single 400 mg, 0 h after dose
[17] = HV single 400 mg, 6 h after dose
[18] = HV single 400 mg, 8 h after dose
[19] = HV single 400 mg, 12 h after dose
[20] = HV single 400 mg, 16 h after dose
[21] = HV single 400 mg, 24 h after dose
[22] = HV single 400 mg, 36 h after dose
[23] = HV single 400 mg, 48 h after dose
[24] = HV single 400 mg, 72 h after dose
[25] = HV single 700 mg, 0 h after dose
[26] = HV single 700 mg, 6 h after dose
[27] = HV single 700 mg, 8 h after dose
[28] = HV single 700 mg, 12 h after dose
[29] = HV single 700 mg, 16 h after dose
[30] = HV single 700 mg, 24 h after dose
[31] = HV single 700 mg, 36 h after dose
[32] = HV single 700 mg, 48 h after dose
[33] = HV single 700 mg, 72 h after dose
[34] = HV single 1000 mg, 0 h after dose
[35] = HV single 1000 mg, 6 h after dose
[36] = HV single 1000 mg, 8 h after dose
[37] = HV single 1000 mg, 12 h after dose
[38] = HV single 1000 mg, 16 h after dose
[39] = HV single 1000 mg, 24 h after dose
[40] = HV single 1000 mg, 36 h after dose
[41] = HV single 1000 mg, 48 h after dose
[42] = HV single 1000 mg, 72 h after dose

## O=C([C@H](CO)c1ccccc1)N1CC2=C(C1)CN(S(=O)(=O)c1cnc3c(c1)OCCO3)C2 (single isomer, unassigned) [Compound 1]
[1]
  Mean Percentage Change in 2,3-DPG Levels: −55%
  Median Percentage Change in 2,3-DPG Levels: −56%
[2]
  Mean Percentage Change in 2,3-DPG Levels: −50%
  Median Percentage Change in 2,3-DPG Levels: −49%
[3]
  Mean Percentage Change in 2,3-DPG Levels: −51%
  Median Percentage Change in 2,3-DPG Levels: −52%
[4]
  Mean Percentage Change in 2,3-DPG Levels: −53%
  Median Percentage Change in 2,3-DPG Levels: −53%
[5]
  Mean Percentage Change in 2,3-DPG Levels: −38%
  Median Percentage Change in 2,3-DPG Levels: −40%
[6]
  Mean Percentage Change in 2,3-DPG Levels: −28%
  Median Percentage Change in 2,3-DPG Levels: −25%
HV MAD cohorts, Day 14
  maximum decrease in 2,3-DPG from baseline (median): 55%
HV MAD, all doses and timepoints (N = 36)
  Mean Maximum Percent Change from Baseline, 2,3-DPG: −56.3%
HV SAD cohorts
  2,3-DPG reduction sustained postdose: 48 to 72 h
HV SAD, all doses and timepoints (N = 24)
  Mean Maximum Percent Change from Baseline, 2,3-DPG: −46.8%
[7]
  Mean Percentage Change in 2,3-DPG Levels: 0%
  Median Percentage Change in 2,3-DPG Levels: 0.0%
[8]
  Mean Percentage Change in 2,3-DPG Levels: −17%
  Median Percentage Change in 2,3-DPG Levels: −18%
[9]
  Mean Percentage Change in 2,3-DPG Levels: −21%
  Median Percentage Change in 2,3-DPG Levels: −17%
[10]
  Mean Percentage Change in 2,3-DPG Levels: −26%
  Median Percentage Change in 2,3-DPG Levels: −25%
[11]
  Mean Percentage Change in 2,3-DPG Levels: −28%
  Median Percentage Change in 2,3-DPG Levels: −33%
[12]
  Mean Percentage Change in 2,3-DPG Levels: −30%
  Median Percentage Change in 2,3-DPG Levels: −31%
[13]
  Mean Percentage Change in 2,3-DPG Levels: −31%
  Median Percentage Change in 2,3-DPG Levels: −33%
[14]
  Mean Percentage Change in 2,3-DPG Levels: −33%
  Median Percentage Change in 2,3-DPG Levels: −29%
[15]
  Mean Percentage Change in 2,3-DPG Levels: −14%
  Median Percentage Change in 2,3-DPG Levels: −18%
HV single 400 mg
  time of pharmacodynamic maximum (minimum of the 2,3-DPG concentration): ~24 h
[16]
  Mean Percentage Change in 2,3-DPG Levels: 0%
  Median Percentage Change in 2,3-DPG Levels: 0.0%
[17]
  Mean Percentage Change in 2,3-DPG Levels: −24%
  Median Percentage Change in 2,3-DPG Levels: −23%
[18]
  Mean Percentage Change in 2,3-DPG Levels: −29%
  Median Percentage Change in 2,3-DPG Levels: −29%
[19]
  Mean Percentage Change in 2,3-DPG Levels: −35%
  Median Percentage Change in 2,3-DPG Levels: −40%
[20]
  Mean Percentage Change in 2,3-DPG Levels: −38%
  Median Percentage Change in 2,3-DPG Levels: −35%
[21]
  Mean Percentage Change in 2,3-DPG Levels: −41%
  Median Percentage Change in 2,3-DPG Levels: −39%
[22]
  Mean Percentage Change in 2,3-DPG Levels: −37%
  Median Percentage Change in 2,3-DPG Levels: −38%
[23]
  Mean Percentage Change in 2,3-DPG Levels: −34%
  Median Percentage Change in 2,3-DPG Levels: −31%
[24]
  Mean Percentage Change in 2,3-DPG Levels: −30%
  Median Percentage Change in 2,3-DPG Levels: −30%
[25]
  Mean Percentage Change in 2,3-DPG Levels: 0%
  Median Percentage Change in 2,3-DPG Levels: 0.0%
[26]
  Mean Percentage Change in 2,3-DPG Levels: −30%
  Median Percentage Change in 2,3-DPG Levels: −29%
[27]
  Mean Percentage Change in 2,3-DPG Levels: −29%
  Median Percentage Change in 2,3-DPG Levels: −28%
[28]
  Mean Percentage Change in 2,3-DPG Levels: −41%
  Median Percentage Change in 2,3-DPG Levels: −41%
[29]
  Mean Percentage Change in 2,3-DPG Levels: −46%
  Median Percentage Change in 2,3-DPG Levels: −46%
[30]
  Mean Percentage Change in 2,3-DPG Levels: −49%
  Median Percentage Change in 2,3-DPG Levels: −49%
[31]
  Mean Percentage Change in 2,3-DPG Levels: −47%
  Median Percentage Change in 2,3-DPG Levels: −46%
[32]
  Mean Percentage Change in 2,3-DPG Levels: −48%
  Median Percentage Change in 2,3-DPG Levels: −48%
[33]
  Mean Percentage Change in 2,3-DPG Levels: −32%
  Median Percentage Change in 2,3-DPG Levels: −33%
[34]
  Mean Percentage Change in 2,3-DPG Levels: 0%
  Median Percentage Change in 2,3-DPG Levels: 0.0%
[35]
  Mean Percentage Change in 2,3-DPG Levels: −18%
  Median Percentage Change in 2,3-DPG Levels: −21%
[36]
  Mean Percentage Change in 2,3-DPG Levels: −31%
  Median Percentage Change in 2,3-DPG Levels: −33%
[37]
  Mean Percentage Change in 2,3-DPG Levels: −35%
  Median Percentage Change in 2,3-DPG Levels: −38%
[38]
  Mean Percentage Change in 2,3-DPG Levels: −40%
  Median Percentage Change in 2,3-DPG Levels: −40%
[39]
  Mean Percentage Change in 2,3-DPG Levels: −44%
  Median Percentage Change in 2,3-DPG Levels: −48%
[40]
  Mean Percentage Change in 2,3-DPG Levels: −46%
  Median Percentage Change in 2,3-DPG Levels: −47%
[41]
  Mean Percentage Change in 2,3-DPG Levels: −43%
  Median Percentage Change in 2,3-DPG Levels: −44%
[42]
  Mean Percentage Change in 2,3-DPG Levels: −27%
  Median Percentage Change in 2,3-DPG Levels: −24%
HV single 200, 400, 700 or 1000 mg
  lag of maximum decrease in blood 2,3-DPG behind maximum plasma concentration: about 24 hours
HV single dose (400 mg), FIG. 41
  time of maximal decrease in blood 2,3-DPG post-dose: 16 to 24 h
MAD study
  mean maximum reduction in the concentration of 2,3-DPG: at least 50%
  mean maximum reduction of 2,3-DPG, range: 46.1-63.6%
SAD study
  mean maximum reduction in the concentration of 2,3-DPG: at least 40%
  mean maximum reduction of 2,3-DPG, range: 35.4-56.1%
24 hours after first dose on day 1
  median and mean reduction in 2,3-DPG, relative to baseline: at least 25%
24 hours after first dose on day 14
  median and mean reduction in 2,3-DPG, relative to baseline: at least 40%
All SAD dose levels, 24 hours after the single dose
  median and mean reduction in the concentration of 2,3-DPG, relative to baseline: at least 30%
